Assay results taken from patent US11273176B2, “Use of PLA2G5-deficient suppressive macrophages in suppression of inflammation” (THE BRIGHAM AND WOMEN'S HOSPITAL, INC., priority 2016, dated 2022).

Experiments:
Pla2g5-null ILC2 = assay: In-vitro stimulation of sorted Pla2g5-null ILC2, intracellular IL-5 by flow cytometry; format: cell-based, mouse; conditions: LA 200 μM, 8 h; for percentage of IL-5-expressing ILC2s: OA 200 μM or IL-33 30 ng/ml alone; for IL-33-induced increase in IL-5 positive ILC2s, effect of FFA: OA 200 μM with IL-33 30 ng/ml
Description: (§1) Lung were manually chopped to approximately 10 mm pieces, then digested in RPMI containing 428 U/ml Collagenase IV (Worthington, Lakewood, N.J.) and 20 mg/ml DNAse I (Roche, Mannheim, Germany) (30 min, 37° C.). After red cell lysis, the obtained cell suspension from single mouse was washed, and counted. After washing, cells were blocked (1 h, 4° C.) with 1% of rat anti mouse CD16/CD32 (BD Biosciences, San Jose, Calif.) and 10% donkey serum and then stained (1 h, 4° C.) with appropriate Abs. Mouse cells were stained with CD45 PercPCy5 (clone 30-F11, BioLegend, San Diego, Calif.), CD19 FITC (6D5, Biolegend), CD3 FITC (145-2C11, BioLegend), CD11b FITC (M1/70, BioLegend), CD11c PE-Cy7 FITC (N418, BioLegend), Ly6G/C FITC (RB6-8C5, eBiosciences), Nk1.1 FITC (PK136, Biolegend), FceR1 FITC (MAR-1, Biolegend), Siglec-F APC (E50-2440, BD Bioscience), Thy 1.2 APC (53-2.1, eBioscience, San Diego, Ca), ICOS (C398.4A, eBiosciences), Sca-1 (D7, eBioscieces), CD25 (PC61, eBiosciences), ST2 biotin (clone DJ8, MD Bioscience) followed by PE streptavidin (eBiosciences). In selected experiments cells were fixed with 4% paraformaldehyde (7 min, 21° C.), washed, permeabilized with 0.1% saponin (SigmaAldrich, St Louis, Ca) (7 min, 21° C.) and stained with CD68 APC (FA-11, AbD Serotec, Raleigh, Nc), IL-5 PE (TRFKS, Biolegend), IL-13 (eBio13A eBiosciences), IL-33 PE (396118, R&D Systems, Minneapolis, Minn.), rabbit polyclonal anti murine RELM-a (Peprotech, Rocky Hill N.J.)) and corresponding isotypes as controls. Acquisition was performed on a FACSCanto flow cytometer with FACSDiva software (BD Biosciences), and data were analyzed with FlowJo (Tree Star, Ashland, Oreg.).
(§2) Wt and Pla2g5-null mice received four doses of 25 ug of Alternaria in 20 ul of PBS intranasally on day 0, 3, 6 and 9 and euthanized 18h later in order to expand ILC2 prior to FACs sorting. Sorting of ILC2 (CD45+ Lin− (CD3, CD19, Ly6g, CD11c, CD11b, Nk1.1, FcεR1^−), Thy1.2+) was performed using a FACSDiva 8.0.1 cell sorter (BD bio-science). Purified ILC2 (>98%) were rested for 40 hours with 10 ng/mL rIL-2 and rIL-7 (R&D Systems, Minneapolis, Minn.) in a 96 well around bottom plates (20000 cells per well). Prior to stimulation, the medium was changed to fresh medium. ILC2 were cultured with 30 ng/mL rIL-33 (R&D Systems), 200 μM Linoleic Acid (Cayman Chemical) or 200 μM Oleic Acid (Cayman Chemical)^22 or all together for 8h. For intracellular cytokine staining, 1 μl/mL of Golgi Plug (BD Bioscience) was added to ILC2 6h before collection for FACs analysis.

Pla2g5-null mice = assay: IL-33-induced pulmonary inflammation (intranasal r-IL-33 with or without LA/OA) in Pla2g5-null mice; format: in vivo, mouse; conditions: for IL-33-induced eosinophilia (numbers of eosinophils), effect of FFA given with IL-33 / pulmonary inflammation: intranasal, 4 doses in 10 days; for pulmonary inflammation: agent given alone
Description: (§3) C57/BL6 Wt and Pla2g5-null mice^46, 47 (9-12 wk-old males) received 25 μg of Alternaria haracter extract (Greer Laboratories, Lenoir, N.C.) in 20 uL of PBS or PBS alone intranasally on days 0, 3, 6 and 9 and euthanized 18 hours later^1 or a single dose of 100 μg and were euthanized after 1 h or 3 h^2. For IL-33-induced pulmonary inflammation, Wt and Pla2g5-null naïve mice were given mouse rIL-33 (R&D Systems, Minneapolis, Minn.) intranasally (i.n.) 100 ng/dose on days 0, 3, 6 and 9 with or without LA (132 nM)^28 or OA (106 nM), and mice were euthanized 18 hours after the last dose.
as §1

C57/BL6 Wt mice = assay: IL-33-induced pulmonary inflammation (intranasal r-IL-33 with or without LA/OA) in Wt mice; format: in vivo, mouse; conditions: for pulmonary inflammation: agent given alone
Description: as §3, §1

Wt ILC2 = assay: In-vitro stimulation of sorted Wt ILC2, intracellular IL-5 by flow cytometry; format: cell-based, mouse; conditions: LA 200 μM, 8 h; for percentage of IL-5-expressing ILC2s: OA 200 μM or IL-33 30 ng/ml alone
Description: as §1, §2

Molecule	percentage of IL-5-expressing ILC2s (Pla2g5-null ILC2)	IL-33-induced increase in IL-5 positive ILC2s, effect of FFA (Pla2g5-null ILC2)	IL-33-induced eosinophilia (numbers of eosinophils), effect of FFA given with IL-33 (Pla2g5-null mice)	pulmonary inflammation (Pla2g5-null mice)	pulmonary inflammation (C57/BL6 Wt mice; intranasal, 4 doses in 10 days)	percentage of IL-5-expressing ILC2s (Wt ILC2)	IL-33-induced eosinophilia (numbers of eosinophils), effect of FFA given with IL-33 (C57/BL6 Wt mice; intranasal, 4 doses in 10 days)	IL-33-induced expression of IL-5 by ILC2s, effect of FFA (Wt ILC2; OA 200 μM with IL-33 30 ng/ml)	numbers of eosinophils, ILC2 and Sca-1+ILC2 (Pla2g5-null mice; IL-33 i.n. over 10 days, compared with Wt controls)	macrophage activation (RELMα in macrophages) (Pla2g5-null mice; exogenous IL-33 for 10 days)	numbers of eosinophils, ILC2s and Sca-1+ILC2 (C57/BL6 Wt mice; IL-33 i.n. over 10 days (100 ng/dose days 0, 3, 6, 9), homogenate lungs, flow cytometry)	macrophage activation (RELMα in macrophages) (C57/BL6 Wt mice; exogenous IL-33 for 10 days)
CCCCCCCC/C=C\CCCCCCCC(=O)O [OA, oleic acid]	Neither LA nor OA induced significant IL-5 expression	inactive	substantially enhance	Neither LA nor OA alone caused pulmonary inflammation	Neither LA nor OA alone caused pulmonary inflammation	Neither LA nor OA induced significant IL-5 expression	–	–	–	–	–	–
CCCCC/C=C\C/C=C\CCCCCCCC(=O)O [LA, linoleic acid]	Neither LA nor OA induced significant IL-5 expression	suppressed	failed to potentiate	Neither LA nor OA alone caused pulmonary inflammation	Neither LA nor OA alone caused pulmonary inflammation	Neither LA nor OA induced significant IL-5 expression	sharp potentiation	significantly potentiated	–	–	–	–
IL-33: mouse rIL-33 (R&D Systems) given intranasally or added to ILC2 cultures (protein, UniProt Q8BVZ5 1-266, looked up) Interleukin-33: MRPRMKYSNSKISPAKFSSTAGEALVPPCKIRRSQQKTKEFCHVYCMRLRSGLTIRKETSYFRKEPTKRYSLKSGTKHEENFSAYPRDSRKRSLLGSIQAFAASVDTLSIQGTSLLTQSPASLSTYNDQSVSFVLENGCYVINVDDSGKDQEQDQVLLRYYESPCPASQSGDGVDGKKLMVNMSPIKDTDIWLHANDKDYSVELQRGDVSPPEQAFFVLHKKSSDFVSFECKNLPGTYIGVKDNQLALVEEKDESCNNIMFKLSKI	significantly increased	–	–	insufficient	induces	significantly increased	–	–	markedly diminished	markedly impaired	robustly increased	induced substantial macrophage activation
